From patent US20240082238A1, “COMPOSITIONS AND METHODS FOR TREATING CANCER” (UNIVERSITY OF IOWA RESEARCH FOUNDATION, priority 2021, published 2024)

Legend:
[1] = Cytotoxicity assay (MTS) and bright-field microscopy, LLC-PK1-MDR1 cells; assay type: cell-based, porcine; details: pig, LLC-PK1-MDR1 cells (overexpressing P-gp), PTX alone, maximum concentration used 50 nM
Method: Cytotoxicity assay. Hec50co cells were seeded at 1500 cells per well in 96-well plates for 24 h in a complete medium. Later, the medium was removed and PTX, CIP2b, or CIP (all dissolved in DMSO and diluted in complete medium) were added to cells as either monotherapies or in combinations, and the plates were incubated for 72 hours. Then, the complete medium was removed and MTS reagent in the complete medium was added to wells, and the plates were incubated for 1-4 hours according to the manufacturer's protocol. Finally, the absorbance was recorded at 490 nm using a Spectra Max plus 384 Microplate Spectrophotometer (Molecular Devices, Sunnyvale, CA). Percentage cell viability was expressed as the average absorbance of the test group relative to that of the control group (untreated cells). […] Synergism was detected following the Chou-Talalay method (CI<1 indicates synergism) (Chou T C. Cancer research. 2010; 70(2):440-6, doi: 10.1158/0008-5472.CAN-09-1947) using CompuSyn software (Ver. 1.0). P-gp efflux transporter. Overexpression of the MDR1 gene, reflected in the abundance of the P-gp efflux pump, is one of the major reasons for PTX chemoresistance in cancer. In this study, LLC-PK1-WT and LLC-PK1-MDR1 cell lines were used. MTS assay and the PTX intracellular accumulation experiment were performed as previously described above.

Hec50co tumors = assay: In vivo tumor accumulation of PTX-OG after peritumoral SC injection; set-up: species or system athymic Nu/Nu mice; details: 0.1 mg/kg PTX-OG SC peritumoral, 24 h
Method: Effect of drug combination on the in vivo tumor accumulation of PTX In this study, athymic Nu/Nu mice were challenged with 1×10^6 of Hec50co tumor cells per mouse on day zero of the experiment. When the tumor grew to a palpable size range of 100-150 mm^3, as measured by Equation 2, treatments were administered SC at the tumor site (peritumoral). Treatment groups (n=3 per group) included: (i) DPBS treated mice, 0.1 mg/kg PTX-OG, and 0.1 mg/kg PTX-OG+5 mg/kg CIP2b. After 24 hours, mice were euthanized, and tumors were collected and submerged in Hank's Balanced Salt Solution (HBSS) with calcium and magnesium. Tumors were then taken out of HBSS (one at a time to maintain cell viability), placed on a Petri dish, and mechanically minced with a sterile scalpel and forceps into small pieces. Tumor pieces were transferred to 50 mL tubes containing 10 mL of the pre-warmed (37° C.) sterile cell dissociation buffer (HBSS containing 50,000 U of collagenase IV and 100,000 U of DNase I). Samples were incubated at 37° C. under continuous rotation at 300 rpm for 60 minutes in the incubator-shaker. Then, cell suspensions were filtered through a 70 μm cell strainer then a 40 μm cell strainer to remove any aggregates. […] Finally, cell suspensions were acquired using a FACSCalibur flow cytometer, and data were analyzed using FlowJo software.

human Topo I = target: T1, human Topo I (Homo sapiens, UniProt P11387); assay: Topoisomerase I inhibition assay (plasmid-based); assay type: biochemical; details: drug final concentration 100 μM
T1 construct: purchased TopoGEN Inc. TG1015-1A
T1 sequence (P11387 1-765): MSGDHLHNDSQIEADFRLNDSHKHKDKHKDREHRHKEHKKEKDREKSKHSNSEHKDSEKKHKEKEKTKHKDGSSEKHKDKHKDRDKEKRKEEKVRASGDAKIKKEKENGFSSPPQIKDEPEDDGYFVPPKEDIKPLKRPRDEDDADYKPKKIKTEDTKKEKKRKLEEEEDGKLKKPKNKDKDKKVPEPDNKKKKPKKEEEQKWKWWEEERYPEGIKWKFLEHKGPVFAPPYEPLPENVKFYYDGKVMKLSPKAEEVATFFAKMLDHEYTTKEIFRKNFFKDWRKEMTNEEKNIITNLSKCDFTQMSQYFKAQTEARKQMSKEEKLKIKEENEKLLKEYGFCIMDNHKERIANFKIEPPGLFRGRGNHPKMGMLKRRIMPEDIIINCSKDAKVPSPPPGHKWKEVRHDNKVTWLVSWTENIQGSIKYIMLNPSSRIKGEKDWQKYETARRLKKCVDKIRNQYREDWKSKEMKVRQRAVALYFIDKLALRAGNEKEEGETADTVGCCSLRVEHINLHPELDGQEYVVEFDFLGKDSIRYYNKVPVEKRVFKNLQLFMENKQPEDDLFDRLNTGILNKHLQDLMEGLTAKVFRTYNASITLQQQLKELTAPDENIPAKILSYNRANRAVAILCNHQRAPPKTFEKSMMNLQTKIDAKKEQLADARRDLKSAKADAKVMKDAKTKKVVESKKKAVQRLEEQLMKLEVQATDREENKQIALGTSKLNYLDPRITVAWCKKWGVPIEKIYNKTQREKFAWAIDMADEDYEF
Method: Topoisomerase I inhibition assay. A plasmid-based Topo I assay (Cat. No. TG1015-1A, TopoGEN Inc., Buena Vista, CO) was performed according to the manufacturer's instructions. Briefly, 1 μL of the test compounds (PTX, CIP, CIP2b, or CAM) at a concentration of 2 mM, was mixed with 2 μL of the reaction buffer (10× tris-glycine-SDS), and deionized water was added to make 18 μL solution. This was followed by adding 1 μL of supercoiled DNA (SC DNA) and 1 μL of human Topo I (10 U/μL) (drug final concentration was 100 μM). Also, SC DNA±Topo I was used as a control (i.e., not containing drugs). In addition, relaxed DNA was added as another control in this assay. Samples were incubated on a heating block (Isotemp 125 D Digital Heat Block, ThermoFisher Scientific) set at 37° C. for 30 minutes. Then, the reaction was stopped by adding a 5× stop buffer. Samples were then loaded directly into the wells of a 1% agarose gel (Research Products International, Mount Prospect, IL). The gel was run at 150 V until the dye front had traveled approximately 5 cm (run time was approximately 2 hours). The gel was then stained with 1 μg/mL ethidium bromide in deionized water for 15 minutes, and this was followed by de-staining (washing) with deionized water for 30 min before imaging. The image was then taken using an Invitrogen iBright CL 1500 Imaging System (ThermoFisher Scientific). The intensity of the final bands in the gel was quantified using ImageJ, and the results are expressed as the percentage of Topo I inhibition.

- Topo I inhibitory activity (gel) (human Topo I): neither PTX nor CIP did inhibit Topo I
Compound: CC(=O)O[C@H]1C(=O)[C@@]2(C)[C@H]([C@H](OC(=O)c3ccccc3)[C@]3(O)C[C@H](OC(=O)[C@H](O)[C@@H](NC(=O)c4ccccc4)c4ccccc4)C(C)=C1C3(C)C)[C@]1(OC(C)=O)CO[C@@H]1C[C@@H]2O [PTX, paclitaxel]
- IC50 at 72 h [1]: > 50 nM
- in vivo intracellular accumulation of PTX-OG by tumor cells vs untreated control (Hec50co tumors): marginal in vivo intracellular accumulation
